pIC50: −log10 of the molar value. Where two headings read alike, the source gives them in different places. Where only a bound is given, the exact number is not on record here.

In one assay the target is T1, CDK4 (Homo sapiens, UniProt P11802).
T1 construct: purchased Invitrogen PR8064A
Put plainly: In vitro kinase inhibition IC50, luminescence (ADP Glo), retinoblastoma substrate. In kind it is biochemical. As to conditions: read-out: CDK4/D1 IC50. The method, boiled down: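 Inhibition of CDK4 was quantified by ADP Glo luminescence with retinoblastoma as substrate. Reactions held 5 nM kinase, 1 μM retinoblastoma and 25 μM ATP and ran 2H at room temperature. A Synergy Neo reader took signals 15 min and 45 min after detection reagent, and percent inhibition was fitted to a four-parameter logistic model in XLfit to obtain IC50.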
(ADP-Glo first removes unused ATP, then detects ADP through luciferase.)

For a further assay, the target named is T2, CDK6 (Homo sapiens, UniProt Q00534).
T2 construct: purchased Invitrogen PR8422B
Described as above. In kind it is biochemical. The following applies: read-out: CDK6/D1 IC50. In a few lines: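 IC50 derived by four-parameter logistic fit of percent inhibition, read as ADP-Glo luminescence. Reactions: 5 nM CDK6, 1 μM retinoblastoma, 25 μM ATP, test compound 0.1–200 nM final, 2 h at room temperature.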

A further assay concerns the target T3, CDK2 (cyclin A) (Homo sapiens, UniProt P24941).
T3 construct: purchased Invitrogen Life Technologies (assay service)
Put plainly: Z'-LYTE kinase assay. In kind it is biochemical. In a few lines: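 FRET-based Z′-LYTE read-out using 1.22–10.3 ng CDK2/cyclin A with Ser/Thr 12 peptide (2 μM in the 2× mix) and ATP (31 μM as the 4× solution), in HEPES pH 7.5, MgCl2, EGTA and BRIJ-35, for 60 min at room temperature. After 1 h of development, the 445/520 nm emission was read, and percent inhibition was fitted to a four-parameter logistic curve for IC50.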

The target in another assay is T4, FMS kinase (Homo sapiens, UniProt P07333).
T4 construct: purchased Invitrogen (Life Technologies)
Put plainly: LanthaScreen Eu Kinase Binding Assay (ATP, fluorescent-PolyGT substrate). In kind it is biochemical. The method, boiled down: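 TR-FRET read (ex 340, em 495 and 520 nm) after EDTA/Tb-labelled antibody stop; IC50 by four-parameter logistic fit of percent inhibition. Reaction: 1.25 nM FMS, 10 min compound preincubation (3-fold series), then 1 h at room temperature with 10 μM ATP and 200 nM fluorescent PolyGT.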
On the technique in general: Time-resolved FRET reads energy transfer from a long-lived donor to a nearby acceptor.

Assay [1] deals with DU4475 breast carcinoma cells. Put plainly: Cancer cell proliferation assay, single agent (cell viability). In kind it is cell-based. As to conditions: Homo sapiens, DU-4475; Table 4; Rb negative; treatment 144 Hr with medium change at 72 Hr; Cell Titer-Glo or resazurin. In a few lines:
(§1)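 Viability read by resazurin or CellTiter-Glo after 24 h treatment (BT-549) or 144 h with a 72 h medium change (MCF-7, DU4475). Compounds tested at 7–9 concentrations, e.g. 1.1 nM–10 μM, added the day after seeding; IC50 by nonlinear sigmoidal regression.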
(In general: ATP-based viability assays read luminescence as a measure of living cells.)

The subject of assay [2] is MCF-7 breast adenocarcinoma cells. The assay is described as above. In kind it is cell-based. The following applies: Homo sapiens, MCF7, Table 4; Rb positive; treatment 144 Hr with medium change at 72 Hr; Cell Titer-Glo or resazurin. In a few lines: as §1
For another assay, the target named is T5, CDK1 (cyclin B) (Homo sapiens, UniProt P06493).
T5 construct: purchased Invitrogen Life Technologies (assay service)
Put plainly: Z'-LYTE kinase assay. In kind it is biochemical. The method, then: The plates were shaken for 30 seconds, and incubated for 60 minutes at room temperature. […] The plates were read on fluorescence plate reader with Dual emission at 445 nm and 520 nm.
The following equations were used for Z′-LYTE™ Screening Assay Data Analysis.

T1 sequence (P11802 whole entry): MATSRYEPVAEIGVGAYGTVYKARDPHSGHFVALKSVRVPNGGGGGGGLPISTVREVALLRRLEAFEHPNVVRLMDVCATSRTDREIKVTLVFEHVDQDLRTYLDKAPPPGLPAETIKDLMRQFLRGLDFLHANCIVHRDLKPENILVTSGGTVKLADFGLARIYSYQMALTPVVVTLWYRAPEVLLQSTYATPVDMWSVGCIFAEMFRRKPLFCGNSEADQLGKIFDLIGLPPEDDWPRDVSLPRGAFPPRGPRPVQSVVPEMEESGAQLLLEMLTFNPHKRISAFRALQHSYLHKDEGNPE
T1 sequence (P24385 whole entry partner): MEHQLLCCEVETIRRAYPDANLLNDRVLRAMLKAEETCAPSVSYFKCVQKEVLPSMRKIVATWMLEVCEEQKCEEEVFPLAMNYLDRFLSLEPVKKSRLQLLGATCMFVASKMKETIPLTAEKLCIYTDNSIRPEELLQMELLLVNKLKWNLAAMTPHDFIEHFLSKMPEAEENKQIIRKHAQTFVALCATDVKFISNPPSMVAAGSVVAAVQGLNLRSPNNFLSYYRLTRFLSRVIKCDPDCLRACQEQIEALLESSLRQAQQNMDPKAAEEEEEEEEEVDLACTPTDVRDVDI
T2 sequence (Q00534 whole entry): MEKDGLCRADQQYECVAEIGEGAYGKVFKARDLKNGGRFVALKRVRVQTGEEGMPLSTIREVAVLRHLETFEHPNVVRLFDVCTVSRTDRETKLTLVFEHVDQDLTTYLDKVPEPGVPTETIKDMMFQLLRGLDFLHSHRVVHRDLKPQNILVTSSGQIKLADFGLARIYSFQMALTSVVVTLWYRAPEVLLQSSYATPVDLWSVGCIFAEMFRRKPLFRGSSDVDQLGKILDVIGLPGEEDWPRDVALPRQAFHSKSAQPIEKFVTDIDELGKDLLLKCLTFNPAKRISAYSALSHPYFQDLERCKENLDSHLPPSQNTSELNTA
T2 sequence (P24385 whole entry partner): as the sequence (P24385 whole entry partner) above
T5 sequence (P06493 whole entry): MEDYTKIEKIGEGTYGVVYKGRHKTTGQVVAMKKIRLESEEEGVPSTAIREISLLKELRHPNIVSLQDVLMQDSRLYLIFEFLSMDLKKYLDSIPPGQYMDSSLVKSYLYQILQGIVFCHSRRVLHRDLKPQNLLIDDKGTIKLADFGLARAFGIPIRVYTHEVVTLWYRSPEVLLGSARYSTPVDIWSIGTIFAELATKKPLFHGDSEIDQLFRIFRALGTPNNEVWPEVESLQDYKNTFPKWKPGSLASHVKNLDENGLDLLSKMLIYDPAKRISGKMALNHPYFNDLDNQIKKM
T5 sequence (P14635 whole entry partner): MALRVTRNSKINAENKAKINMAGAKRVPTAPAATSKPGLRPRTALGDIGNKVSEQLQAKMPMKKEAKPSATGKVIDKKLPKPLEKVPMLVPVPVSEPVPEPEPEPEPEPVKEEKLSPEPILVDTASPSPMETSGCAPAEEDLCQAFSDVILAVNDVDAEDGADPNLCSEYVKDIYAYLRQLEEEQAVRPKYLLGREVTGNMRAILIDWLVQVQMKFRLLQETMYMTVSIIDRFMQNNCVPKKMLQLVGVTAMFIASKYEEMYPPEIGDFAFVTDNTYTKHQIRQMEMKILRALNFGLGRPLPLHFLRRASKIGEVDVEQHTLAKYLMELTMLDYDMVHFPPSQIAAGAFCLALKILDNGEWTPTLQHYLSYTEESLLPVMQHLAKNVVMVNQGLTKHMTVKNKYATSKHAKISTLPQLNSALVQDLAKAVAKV
T4 sequence (P07333 20-972): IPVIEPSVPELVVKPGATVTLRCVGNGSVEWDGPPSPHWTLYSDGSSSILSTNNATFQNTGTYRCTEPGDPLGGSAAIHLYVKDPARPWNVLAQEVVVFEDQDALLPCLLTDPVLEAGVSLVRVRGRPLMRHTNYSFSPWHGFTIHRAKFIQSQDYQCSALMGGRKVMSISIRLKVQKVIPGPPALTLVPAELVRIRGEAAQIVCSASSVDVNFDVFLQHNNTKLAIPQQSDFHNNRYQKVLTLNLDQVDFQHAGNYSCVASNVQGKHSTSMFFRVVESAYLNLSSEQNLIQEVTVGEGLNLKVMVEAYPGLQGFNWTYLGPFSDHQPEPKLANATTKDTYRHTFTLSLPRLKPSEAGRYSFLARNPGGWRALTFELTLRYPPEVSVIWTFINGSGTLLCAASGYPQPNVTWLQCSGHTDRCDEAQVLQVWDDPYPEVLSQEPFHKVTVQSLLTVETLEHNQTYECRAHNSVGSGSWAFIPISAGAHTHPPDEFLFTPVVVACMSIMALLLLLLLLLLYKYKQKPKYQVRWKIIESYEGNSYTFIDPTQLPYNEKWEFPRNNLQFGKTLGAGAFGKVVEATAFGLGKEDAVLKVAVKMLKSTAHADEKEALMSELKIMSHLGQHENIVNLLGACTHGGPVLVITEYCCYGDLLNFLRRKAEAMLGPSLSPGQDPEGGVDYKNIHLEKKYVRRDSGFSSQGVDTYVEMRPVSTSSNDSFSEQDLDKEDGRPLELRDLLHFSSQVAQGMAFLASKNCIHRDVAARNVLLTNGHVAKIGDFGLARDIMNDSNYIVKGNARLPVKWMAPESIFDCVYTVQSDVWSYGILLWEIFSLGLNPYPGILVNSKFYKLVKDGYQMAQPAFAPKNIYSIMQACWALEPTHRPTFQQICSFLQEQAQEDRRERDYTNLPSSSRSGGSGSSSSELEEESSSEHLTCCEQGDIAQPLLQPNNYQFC

Consider `CS(=O)(=O)N1CC[C@@H](Nc2ncc3cc(C#N)c(=O)n(C4CCCC4)c3n2)[C@H](F)C1` [Compound No. 362, 8-cyclopentyl-2-((3R,4R)-3-fluoro-1-(methylsulfonyl)piperidin-4-ylamino)-7-oxo-7,8-dihydropyrido[2,3-d]pyrimidine-6-carbonitrile], for which the pIC50 at CDK4 is 8.22; on CDK6, 7.82; against CDK2 (cyclin A), 7.09; on FMS kinase, 7.05; in assay [1] it was 5.57; in assay [2], 6.12. For the same compound, on CDK1 (cyclin B), the pIC50 was 5.89.

For `N#Cc1cc2cnc(Nc3ccc4c(c3)CCNC4)nc2n(CC2CCCCC2)c1=O` [Compound No. 347, 8-(cyclohexylmethyl)-7-oxo-2-((1,2,3,4-tetrahydroisoquinolin-6-yl)amino)-7,8-dihydropyrido[2,3-d]pyrimidine-6-carbonitrile], the pIC50 on CDK4 is below 6.76; at CDK6 it was below 6.76; on CDK2 (cyclin A), 6.18; at FMS kinase, 8.52; in assay [1], 5.91; in assay [2], 6.39. The pIC50 on CDK1 (cyclin B) (read-out: CDK1/B IC50) was 5.81.

`CCC(CC)n1c(=O)c(C#N)cc2cnc(NC3CCN(S(C)(=O)=O)CC3)nc21` [Compound No. 352, 2-((1-(methylsulfonyl)piperidin-4-yl)amino)-7-oxo-8-(pentan-3-yl)-7,8-dihydropyrido[2,3-d]pyrimidine-6-carbonitrile]: the pIC50 was 7.16 at CDK4; 7.68 at CDK6; 7.54 against CDK2 (cyclin A); below 5.30 on FMS kinase; 5.95 in assay [1]; 5.85 in assay [2]. The same compound showed a pIC50 on CDK1 (cyclin B) of 6.84.

As to `CS(=O)(=O)N1CCC(Nc2ncc3cc(C#N)c(=O)n(CC4CCCCC4)c3n2)CC1` [Compound No. 348, 8-(cyclohexylmethyl)-2-((1-(methylsulfonyl)piperidin-4-yl)amino)-7-oxo-7,8-dihydropyrido[2,3-d]pyrimidine-6-carbonitrile], the pIC50 on CDK4 was 7.21; on CDK6, 7.26; at CDK2 (cyclin A), 6.66; at FMS kinase it was 7.51; in assay [1], 5.16; in assay [2], 6.14. Further, on CDK1 (cyclin B), the pIC50 is 5.86.

For `Cc1ccc(S(=O)(=O)N2CCC(Nc3ncc4cc(C#N)c(=O)n(C5CCCC5)c4n3)CC2)cc1` [Compound No. 360, 8-cyclopentyl-7-oxo-2-((1-tosylpiperidin-4-yl)amino)-7,8-dihydropyrido[2,3-d]pyrimidine-6-carbonitrile], the pIC50 at CDK4 was 8.82; on CDK6, 7.89; against CDK2 (cyclin A), above 9.00; at FMS kinase, below 5.30; in assay [1], 5.85; in assay [2], 6.59. Besides, on CDK1 (cyclin B), the pIC50 was 6.22.

In the case of `N#Cc1cc2cnc(Nc3ccc(S(N)(=O)=O)cc3)nc2n(C2CCCC2)c1=O` [Compound No. 377, 4-((6-cyano-8-cyclopentyl-7-oxo-7,8-dihydropyrido[2,3-d]pyrimidin-2-yl)amino)benzenesulfonamide], the pIC50 was 7.82 on CDK4; 7.96 at CDK6; 7.60 on CDK2 (cyclin A); 7.57 at FMS kinase; 6.44 in assay [1]; 6.38 on CDK1 (cyclin B) (read-out: CDK1/B IC50).

Take `CS(=O)(=O)N1CC(Nc2ncc3cc(C#N)c(=O)n(C4CCCC4)c3n2)C1` [Compound No. 372, 8-cyclopentyl-2-((1-(methylsulfonyl)azetidin-3-yl)amino)-7-oxo-7,8-dihydropyrido[2,3-d]pyrimidine-6-carbonitrile]: the pIC50 on CDK4 is below 6.70; on CDK6, below 6.70; at CDK2 (cyclin A), 6.15; on FMS kinase, 5.75; in assay [1], below 5.00; on CDK1 (cyclin B) (read-out: CDK1/B IC50) it was below 5.38.

For the compound `N#Cc1cc2cnc(NC3CCN(S(=O)(=O)c4ccc(F)cc4)CC3)nc2n(C2CCCC2)c1=O` [Compound No. 361, 8-cyclopentyl-2-((1-((4-fluorophenyl)sulfonyl)piperidin-4-yl)amino)-7-oxo-7,8-dihydropyrido[2,3-d]pyrimidine-6-carbonitrile], the pIC50 on CDK4 is 8.89; on CDK6 it was 8.15; against CDK2 (cyclin A), above 9.00; at FMS kinase it was 6.27; in assay [1], 5.98; in assay [2] it was 6.51. This compound showed a pIC50 on CDK1 (cyclin B) of 6.80.

With `CS(=O)(=O)N1CC[C@H](Nc2ncc3cc(C#N)c(=O)n(C4CCCC4)c3n2)[C@H](F)C1` [Compound No. 363, 8-cyclopentyl-2-((3R,4S)-3-fluoro-1-(methylsulfonyl)piperidin-4-ylamino)-7-oxo-7,8-dihydropyrido[2,3-d]pyrimidine-6-carbonitrile], the pIC50 was 8.77 on CDK4; 7.92 at CDK6; 7.77 against CDK2 (cyclin A); 6.86 at FMS kinase; 5.78 in assay [1]; 6.58 in assay [2]. For the same compound, on CDK1 (cyclin B), the pIC50 is 6.63.

On to `N#Cc1cc2cnc(Nc3ccc4c(c3)CCNC4)nc2n([C@H]2C[C@@H]3CC[C@H]2C3)c1=O` (relative stereo) [Compound No. 354, 8-((S,2S,4R)-bicyclo[2.2.1]heptan-2-yl)-7-oxo-2-(1,2,3,4-tetrahydroisoquinolin-6-ylamino)-7,8-dihydropyrido[2,3-d]pyrimidine-6-carbonitrile], for which the pIC50 at CDK4 is 7.92; at CDK6 it was 7.92; on CDK2 (cyclin A), 6.75; on FMS kinase it was 8.46; in assay [1], 6.49; in assay [2], 6.92. Also, at CDK1 (cyclin B) (read-out: CDK1/B IC50), the pIC50 was 6.27.

As for `N#Cc1cc2cnc(Nc3ccc4c(c3)CCNC4)nc2n(-c2c(F)cccc2F)c1=O` [Compound No. 375, 8-(2,6-difluorophenyl)-7-oxo-2-((1,2,3,4-tetrahydroisoquinolin-6-yl)amino)-7,8-dihydropyrido[2,3-d]pyrimidine-6-carbonitrile], the pIC50 is 6.88 at CDK4; 6.83 on CDK6; 6.52 at CDK2 (cyclin A); 7.89 on FMS kinase; 6.21 in assay [1]; 5.88 on CDK1 (cyclin B) (read-out: CDK1/B IC50).

In the case of `CCC(C)n1c(=O)c(C#N)cc2cnc(NC3CCN(S(C)(=O)=O)CC3)nc21` (stereo not drawn) [Compound No. 351, 8-(sec-butyl)-2-((1-(methylsulfonyl)piperidin-4-yl)amino)-7-oxo-7,8-dihydropyrido[2,3-d]pyrimidine-6-carbonitrile], the pIC50 on CDK4 is 7.32; on CDK6 it was 7.82; on CDK2 (cyclin A), 7.74; at FMS kinase it was 5.94; in assay [1], 5.85; in assay [2] it was 6.69. Further, on CDK1 (cyclin B) (read-out: CDK1/B IC50), the pIC50 is 6.93.

`N#Cc1cc2cnc(NC3CCN(S(=O)(=O)CCCCCCO)CC3)nc2n(C2CCCC2)c1=O` [Compound No. 378, 8-cyclopentyl-2-((1-((6-hydroxyhexyl)sulfonyl)piperidin-4-yl)amino)-7-oxo-7,8-dihydropyrido[2,3-d]pyrimidine-6-carbonitrile]: the pIC50 at CDK4 was 8.52; at CDK6, 8.30; against CDK2 (cyclin A), 7.52; on FMS kinase, 6.40; in assay [1], 6.17; against CDK1 (cyclin B), 6.49.

In the case of `COCCS(=O)(=O)N1CCC(Nc2ncc3cc(C#N)c(=O)n(C4CCCC4)c3n2)CC1` [Compound No. 374, 8-cyclopentyl-2-((1-((2-methoxyethyl)sulfonyl)piperidin-4-yl)amino)-7-oxo-7,8-dihydropyrido[2,3-d]pyrimidine-6-carbonitrile], the pIC50 on CDK4 was 8.30; at CDK6 it was 8.22; on CDK2 (cyclin A) it was 7.15; at FMS kinase it was 6.08; in assay [1] it was 6.16; on CDK1 (cyclin B), 6.18.

These data come from patent publication US20220273659A1, “HETEROCYCLIC COMPOUNDS AS KINASE INHIBITORS” (NUVATION BIO INC., priority 2019, published 2022).
